{"source": "patent US8936809B2", "about": "“Method for treating prostate diseases based on local delivery of active substances” (Lidds AB, priority 2005, dated 2015)", "key": {"[1]": {"experiment": "Plasma pharmacokinetics and tissue level after controlled release implant into bulbourethral gland of male sheep (Example 2)", "assay_type": "in vivo", "protocol": "The major purpose of the present animal study was to examine the pharmacokinetics, efficacy and safety of the novel local drug delivery system with 2-hydroxyflutamide, a selective antagonist to the androgen receptor (AR). A ceramic based drug delivery product was administered into an androgen dependent tissue (the bulbourethral gland) in male sheep. In total 11 male sheep were divided into two separate groups. One group was given 2-hydroxyflutamide by the local implant delivery system as a single administration into the bulbourethral gland and was monitored during 2 months. Each sheep in this treatment group received the prostate implant by a single dose of 250 mg. The other group only received ceramic formulation without any active drug substance.\nThe implant drug delivery system was inserted locally, via rectum, into the androgen dependent tissue (bulbourethral gland) through sterile needles during rectal ultrasound guidance. The animals were during anaesthesia throughout the insertion procedure. The sterile ceramic based implant had two major components: calcium sulphate (CaSO4-0.5H2O) and 2-hydroxyflutamide. The composition of the formulation was 250 mg 2-hydroxyflutamide+2.25 g calcium sulphate di-hydrate+5.0 g calcium sulphate hemi-hydrate and it was mixed with solution: 3.5 ml of water solution (with 1% acetic acid and 1% methyl cellulose). […] The amount injected into each lobe of the androgen sensitive bulbourethral gland was about 2.0-3.0 ml.\nQuantification of 2-hydroxy-flutamide in plasma samples was done by HPLC-MS. HPLC was performed with a Surveyor HPLC system equipped with a CTC Pal autosampler. The analytical column was a Zorbax Eclipse XDB-18 (2.1 mm×50 mm, particle size 5 μm) connected to a guard column. The calibration curves were constructed by linear regression of the peak area ratio of 2-hydroxy-flutamide and internal standard as a function of 2-hydroxy-flutamide concentrations. The method performance was studied using quality control (QC) samples, which were prepared by spiking blank plasma with 2-hydroxy-flutamide.\nSheep plasma (unknown, QC or calibration sample) at a volume of 100 μL was mixed with 100 μL of internal standard solution (nilutamide at 0.025 μg/mL) and 250 μL of acetonitrile. A subsequent vortex mix was performed for 20 seconds followed by a centrifugation for 10 minutes. […] of the supernatant was transferred to a clean test tube and evaporated to dryness at 50° C. in a gentle stream of nitrogen. The residue was reconstituted in 100 μL aqueous formic acid (0.1%) and transferred to a vial for LC-MS/MS analysis.\nThe formulation was successfully administered in 11 male sheep. Based on the plasma exposure profile the pharmacokinetic variables were calculated with standard methods (Table 4)."}, "[2]": {"experiment": "Plasma pharmacokinetics after local prostate implant in male beagle dogs (Example 3)", "assay_type": "in vivo, dog", "conditions": "for F (bioavailability): beagle dog; for F (bioavailability) / bioavailability: approximated with average i.v. clearance of Example 1; for half-life: read-out: t½ (converted); for bioavailability: iv, read-out: F (bioavailability)", "protocol": "The dog has been selected as the test model because of its proven suitability in this type of study. The study was performed in 12 male beagle dogs from Harlan Winkelmann GmbH, Germany.\nThe sterile controlled release implant was composed of ceramic compounds and 2-hydroxyflutamide. Storage and handling instructions were given. The composition of the formulation of the low and high dose was 250 mg of 2-hydroxyflutamide +2.25 g calcium sulphate di-hydrat +5.0 g calcium sulphate hemi-hydrate and it was mixed with solution: 3.5 ml of water solution (with 1% acetic acid and 1% methyl cellulose).\nThe final formulation work was done during sterile conditions by trained personal at the experimental day. The amount injected into each lobe of the androgen sensitive bulbourethral gland was about 2.0-3.0 ml for the low dose (250 mg) and 4.0-6.0 ml of the high dose (500 mg).\nThe animals were fasted for at least 12 hours prior to the insertion procedure on Day 1. The implant drug delivery system was inserted locally into the prostate tissue, via rectum, through sterile needles during rectal ultrasound guidance. Each animal was under anesthesia during the insertion procedure.\nBlood samples for pharmacokinetic was collected as follows: On Day 1: Pre-insertion and 6 hours after insertion. Blood samples were sampled in the morning on Days 2, 3, 4, 5, 6 and 7. During the rest of the study blood samples were collected once a week.\nBlood samples of approximately 3 ml were drawn from the jugular vein. The blood was sampled into vacutainers containing EDTA as anticoagulant. The blood was placed in ice water until centrifugation (10 min, 1270 G, +4° C.). The plasma was transferred to Nunc cryotubes (Nunc, Denmark) and frozen at −18° C. or below and sent with dry ice to Swedish Veterinary Institute, Uppsala for analysis.\nThe plasma pharmacokinetic variables were calculated using standard pharmacokinetic methods and are given for both implant doses of 250 mg and 500 mg in Tables 6 and 7. The bioavailability (F) was approximated by using the average value for clearance of 2-hydroyflutamide when it was given by an intravenous dose in the dog study presented in Example 1."}, "dog prostate tissue": {"tested_on": "dog prostate tissue", "experiment": "Macroscopic anti-proliferate effect on dog prostate tissue: volume before, weight after, palpation (Example 1)", "assay_type": "in vivo", "parameters": "key to Palpation: 0 = no effect; + = mild effect; ++ = intermediate; +++ = strong effect", "conditions": "for Weight of prostate tissue (after): termination after day 20", "excerpt": "After day 20, each dog was terminated with an intravenous dose of a mixture of pentobarbital and potassium. The following organs were surgical removed and frozen: prostate, testis, liver and kidney for the assessment of effect and safety. These organs were carefully examined as a consequence of the local tissue exposure of 2-hydroxy-flutamide and the ceramic-based implant. The macroscopic pharmacological anti-proliferate effect of 2-hydroxy-flutamide was examined as the volume-weight ratio of the dog prostate tissue before and after the local administration of 2-hydroxy-flutamide as a single controlled release pharmaceutical composition."}, "[3]": {"conditions": "male sheep plasma, 250 mg implant into bulbourethral gland, individual animals"}, "[4]": {"conditions": "beagle dog plasma, local prostate implant 250 mg, individual animals"}, "[5]": {"conditions": "beagle dog plasma, local prostate implant 500 mg, individual animals"}, "[6]": {"conditions": "male, beagle, dog, plasma, 250 mg, beagle dogs, local prostate implant 250 mg, Mean of four animals"}, "[7]": {"conditions": "male, beagle, dog, plasma, 500 mg, beagle dogs, local prostate implant 500 mg, Mean of four animals"}}, "note": "Several values for one entry are separate records, joined by “and”; a condition that tells them apart may be missing. Equal values may be shown once. Read-outs that look alike come from different tables or passages of the source."}
{"smiles": "CC(C)(O)C(=O)Nc1ccc([N+](=O)[O-])c(C(F)(F)F)c1", "note": "[2-hydroxy-flutamide]", "values": [{"measurement": "AUC", "setting": "[1]; [3]", "result": "3725 ng·h/mL and 3390 ng·h/mL and 3755 ng·h/mL and 1855 ng·h/mL and 4948 ng·h/mL and 4436 ng·h/mL and 4287 ng·h/mL"}, {"measurement": "Cmax", "setting": "[1]; [3]", "result": "84 ng/mL and 35 ng/mL and 19.8 ng/mL and 16.3 ng/mL and 34 ng/mL and 31 ng/mL and 26 ng/mL"}, {"measurement": "t½", "setting": "[1]; [3]", "result": "253 h and 117 h and 67 h and 168 h and 119 h and 140 h and 159 h"}, {"measurement": "Tmax", "setting": "[1]; male, sheep, plasma, 250 mg, male sheep, 250 mg implant into bulbourethral gland, Mean of seven sheep", "result": 9, "unit": "h"}, {"measurement": "AUC", "setting": "[1]; male, sheep, plasma, 250 mg, male sheep, 250 mg implant into bulbourethral gland, Mean of seven sheep, read-out: AUC", "result": 3770, "unit": "ng·h/mL"}, {"measurement": "Cmax", "setting": "[1]; male, sheep, plasma, 250 mg, male sheep, 250 mg implant into bulbourethral gland, Mean of seven sheep, read-out: Cmax", "result": 42, "unit": "ng/mL"}, {"measurement": "half-life", "setting": "[1]; male, sheep, plasma, 250 mg, male sheep, 250 mg implant into bulbourethral gland, Mean of seven sheep, read-out: t½ (converted)", "result": 146, "unit": "h"}, {"measurement": "half-life", "setting": "[1]; male, sheep, plasma, other: local implant into the bulbourethral gland via rectum, 250 mg, male sheep, 250 mg controlled release implant, read-out: elimination half-life (converted)", "result": "~146", "unit": "h"}, {"measurement": "AUC", "setting": "[2]; [4]", "result": "8701 ng·h/mL and 5446 ng·h/mL and 5921 ng·h/mL and 13237 ng·h/mL"}, {"measurement": "Cmax", "setting": "[2]; [4]", "result": "97 ng/mL and 58 ng/mL and 85 ng/mL and 131 ng/mL"}, {"measurement": "Tmax", "setting": "[2]; [4]", "result": 48, "unit": "h"}, {"measurement": "t½", "setting": "[2]; [4]", "result": "34 h and 39 h and 26 h"}, {"measurement": "AUC", "setting": "[2]; [5]", "result": "13009 ng·h/mL and 13420 ng·h/mL and 11631 ng·h/mL"}, {"measurement": "Cmax", "setting": "[2]; [5]", "result": "202 ng/mL and 133 ng/mL"}, {"measurement": "Tmax", "setting": "[2]; [5]", "result": 48, "unit": "h"}, {"measurement": "t½", "setting": "[2]; [5]", "result": "57 h and 59 h and 34 h and 28 h"}, {"measurement": "F (bioavailability)", "setting": "[2]; local prostate implant 250 mg, individual animals", "result": "74% and 46% and 50% and 112%"}, {"measurement": "F (bioavailability)", "setting": "[2]; local prostate implant 500 mg, individual animals", "result": "86% and 110% and 113% and 98%"}, {"measurement": "half-life", "setting": "[2]; male, beagle, dog, plasma, 250 mg, beagle dog plasma, local prostate implant 250 mg, individual animals", "result": 32, "unit": "h"}, {"measurement": "AUC", "setting": "[2]; male, beagle, dog, plasma, 250 mg, beagle dogs, local prostate implant 250 mg, Mean of four animals, read-out: AUC", "result": 8330, "unit": "ng·h/mL"}, {"measurement": "Cmax", "setting": "[2]; male, beagle, dog, plasma, 250 mg, beagle dogs, local prostate implant 250 mg, Mean of four animals, read-out: Cmax", "result": 93, "unit": "ng/mL"}, {"measurement": "Tmax", "setting": "[2]; male, beagle, dog, plasma, 250 mg, beagle dogs, local prostate implant 250 mg, Mean of four animals, read-out: tmax", "result": 17, "unit": "h"}, {"measurement": "half-life", "setting": "[2]; [6]", "result": 33, "unit": "h"}, {"measurement": "AUC", "setting": "[2]; male, beagle, dog, plasma, 500 mg, beagle dog plasma, local prostate implant 500 mg, individual animals, read-out: AUC", "result": 10200, "unit": "ng·h/mL"}, {"measurement": "Cmax", "setting": "[2]; male, beagle, dog, plasma, 500 mg, beagle dog plasma, local prostate implant 500 mg, individual animals, read-out: Cmax", "result": 102, "unit": "ng/mL"}, {"measurement": "AUC", "setting": "[2]; male, beagle, dog, plasma, 500 mg, beagle dogs, local prostate implant 500 mg, Mean of four animals, read-out: AUC", "result": 12100, "unit": "ng·h/mL"}, {"measurement": "Cmax", "setting": "[2]; male, beagle, dog, plasma, 500 mg, beagle dogs, local prostate implant 500 mg, Mean of four animals, read-out: Cmax", "result": 145, "unit": "ng/mL"}, {"measurement": "Tmax", "setting": "[2]; male, beagle, dog, plasma, 500 mg, beagle dogs, local prostate implant 500 mg, Mean of four animals, read-out: tmax", "result": 27, "unit": "h"}, {"measurement": "half-life", "setting": "[2]; [7]", "result": 45, "unit": "h"}, {"measurement": "bioavailability", "setting": "[2]; [6]", "result": 71, "unit": "%"}, {"measurement": "bioavailability", "setting": "[2]; [7]", "result": 102, "unit": "%"}, {"measurement": "Palpation", "setting": "dog prostate tissue; dog H2, 60 mg local prostate implant", "result": "++"}, {"measurement": "Weight of prostate tissue (after)", "setting": "dog prostate tissue; dog H2, after local administration of 60 mg", "result": 13, "unit": "g"}, {"measurement": "volume of prostate tissue (before)", "setting": "dog prostate tissue; dog H2, before local administration of 60 mg", "result": 13.3, "unit": "cm^3"}, {"measurement": "Palpation", "setting": "dog prostate tissue; dog H3, 30 mg local prostate implant", "result": 0}, {"measurement": "Weight of prostate tissue (after)", "setting": "dog prostate tissue; dog H3, after local administration of 30 mg", "result": 17, "unit": "g"}, {"measurement": "volume of prostate tissue (before)", "setting": "dog prostate tissue; dog H3, before local administration of 30 mg", "result": 12.4, "unit": "cm^3"}, {"measurement": "Palpation", "setting": "dog prostate tissue; dog H4, 120 mg local prostate implant", "result": "+++"}, {"measurement": "Weight of prostate tissue (after)", "setting": "dog prostate tissue; dog H4, after local administration of 120 mg", "result": 13, "unit": "g"}, {"measurement": "volume of prostate tissue (before)", "setting": "dog prostate tissue; dog H4, before local administration of 120 mg", "result": 11.3, "unit": "cm^3"}, {"measurement": "anti-proliferate effect", "setting": "dog prostate tissue; dogs, local prostate implant, three weeks", "result": "clear anti-proliferate effect"}, {"measurement": "macroscopic effect based on volume (before) and weight (after)", "setting": "dog prostate tissue; two higher doses (60 mg, H2 and 120 mg, H4) in comparison with placebo (H1) and low dose (30 mg, H3)", "result": "resulted in a macroscopic effect"}]}
